Values quoted from earlier work as cited in patent US8114422B2, “Methods and compositions for reducing skin damage” (The General Hospital Corporation, priority 2005, dated 2012).
Like-named read-outs stand apart in the source and are kept apart here.

Legend:
PDGF receptor kinase = settings: read-out: IC50 PDGF receptor (tyrosine) kinase
[1] = system: mitochondrial membrane potential

IC50 (PDGF receptor kinase)	Compound	depolarization of mitochondrial membrane potential ([1]; treatment of cells at 10 μM)	depolarization of mitochondrial membrane potential ([1]; treatment of cells at 100 nm)
20 µM	N#CC(=Cc1ccc2[nH]ccc2c1)C(N)=C(C#N)C#N [AG-370]	–	–
1 µM	COc1cc2ncc(-c3ccccc3)nc2cc1OC [AG-1296, 6,7-Dimethoxy-3-phenylquinoxaline]	–	–
–	N#CC(C#N)=NNc1ccc(OC(F)(F)F)cc1 [FCCP, Carbonylcyanide-4-(trifluoromethoxy)-phenylhydrazone]	complete (10 μM)	partial (100 nm) or
